Data reported in PubChem BioAssay (NCI).
Several values for one entry are separate records, joined by “and”; a condition that tells them apart may be missing. Identical values can stand only once.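 48-hour exposure; five concentrations; linearly interpolated endpoints. Abbreviation: GI50, concentration required for 50% inhibition of growth. TGI is the concentration that stops growth completely.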

Legend:
Test in all cases: NCI-60 cell line screen, 48 h
K-562 leukemia = system: K-562 leukemia
T-47D breast = system: T-47D breast
SF-268 CNS = system: SF-268 CNS
NCI/ADR-RES ovarian = system: NCI/ADR-RES ovarian
HCC-2998 colon = system: HCC-2998 colon
COLO 205 colon = system: COLO 205 colon
KM12 colon = system: KM12 colon
MCF7 breast = system: MCF7 breast
HL-60(TB) leukemia = system: HL-60(TB) leukemia
SR leukemia = system: SR leukemia

Row | SMILES | GI50 (K-562 leukemia) [µM] | TGI (K-562 leukemia) [µM] | GI50 (T-47D breast) | TGI (T-47D breast) | GI50 (SF-268 CNS) | TGI (SF-268 CNS) | GI50 (NCI/ADR-RES ovarian) [µM] | TGI (NCI/ADR-RES ovarian) [µM] | GI50 (HCC-2998 colon) | TGI (HCC-2998 colon) | GI50 (COLO 205 colon) | TGI (COLO 205 colon) | GI50 (KM12 colon) | TGI (KM12 colon) | GI50 (MCF7 breast) | TGI (MCF7 breast) | GI50 (HL-60(TB) leukemia) [µM] | TGI (HL-60(TB) leukemia) [µM] | GI50 (SR leukemia) | TGI (SR leukemia) [µM]
1 | CCCCCC(=O)O[C@]1(C(C)=O)CCC2C3CCC4=CC(=O)CC[C@]4(C)C3CC[C@@]21C (stereo partly specified) | 3.19 | 21.9 | 3.77 µM | 25.7 µM | 3.46 µM | 18 µM | 2.11 | 8.42 | 2.55 µM | 7.56 µM | 2.13 µM | 4.04 µM | 2.24 µM | 5.24 µM | 2.51 µM | 8.39 µM | 2.25 | 4.7 | 2.14 µM | 6.5
2 | O=C(c1cccs1)c1c(C(F)(F)F)n([O-])c2cc(Cl)c(Cl)cc2[n+]1=O | 0.344 | 17.4 | 2.18 µM | 4.94 µM | 1.03 µM | 2.45 µM | 1.05 | 2.55 | 1.5 µM | 2.86 µM | 2 µM | 4.13 µM | 0.517 µM | 1.08 µM | 0.0762 µM | 1.17 µM | 0.362 | 3.53 | < 0.0214 µM | 
3 | CNCc1ccc(-c2cc(-c3nc(-c4ccc(S(=O)(=O)C(C)C)cc4)cnc3N)on2)cc1 | 1.05 | 3.61 | 15.7 µM | 37.8 µM | 1.41 µM | 3.29 µM | 3.08 | > 74.4 | 2.48 µM | 19.6 µM | 10.8 µM | 24.1 µM | 1.87 µM | 12.6 µM | 0.0946 µM | 1.82 µM | 1.35 | 10.6 | 0.132 µM | 2.84
4 | COc1cc2nnc3c4cccnc4[nH]c3c2cc1OC | 0.577 | 50 | 0.595 µM and 0.401 µM | 5.61 µM and 3.42 µM | 1.48 µM and 0.535 µM | 12.9 µM and 4.53 µM | 2.19 | 50 | 2.28 µM and 1.95 µM | 13.6 µM and 3.79 µM | 6.92 µM and 2.96 µM | 16 µM and 11.6 µM | 2.68 µM and 1.91 µM | 50 µM and 15.4 µM | 0.836 µM and 0.34 µM | 10.9 µM and 2.82 µM | 0.111 | 50 | 0.117 µM and 0.0395 µM | 
5 | Cc1cc(Cl)nc(N(CCNc2ccnc3cc(Cl)ccc23)Cc2ccco2)n1 | 1.54 | 3.35 | 1.66 µM | 3.61 µM | 3.22 µM | 13.2 µM | 1.74 | 4 | 2.03 µM | 4.22 µM | 1.64 µM | 3.23 µM | 2.01 µM | 4.67 µM | 1.69 µM | 3.36 µM | 1.65 | 3.59 | 1.81 µM | 4.39
6 | Nc1nc(=S)c2ncn(C3OC(COP(=O)(O)O)C(O)C3O)c2[nH]1 (stereo unspecified) | 0.965 | > 100 | 0.541 µM | > 100 µM | 2.11 µM | > 100 µM | 0.491 | > 100 | 3.29 µM | > 100 µM | 2.66 µM | 9.04 µM | 3.02 µM | > 100 µM | 0.397 µM | > 100 µM | 2.37 | > 100 | 0.268 µM | > 100
7 | CSc1nc2nc(-c3ccccc3)c(C)c-2c2n1C(C)C(=O)N2 (stereo unspecified) | 41.5 | > 100 | 29.8 µM | > 100 µM | 34.2 µM | > 100 µM | 38.8 | > 100 | 88.6 µM | > 100 µM | 41.4 µM | > 100 µM | 47.7 µM | > 100 µM | 25.8 µM | > 100 µM | 36.4 | > 100 | 39.3 µM | > 100
8 | O=C(Nc1ccc(OC(F)(F)Cl)cc1)c1cnc(N2CC[C@@H](O)C2)c(-c2ccn[nH]2)c1 |  | 11 | 6.12 µM | 46.7 µM | 15.4 µM | 39.2 µM | 24.9 | 79.6 | 8.41 µM | 22.2 µM | 5.58 µM | 19.7 µM | 9.26 µM | 24.2 µM | 10 µM | 32.8 µM | 22.3 | 54 | 10.8 µM | 50.9
9 | CCCCCCCCCCCCCCNC(=O)Nc1ccc(Cl)c(Cl)c1 | 8.04 | > 100 | 3.17 µM | > 30 µM | 3.72 µM | > 100 µM | 3.02 | > 28.4 | 2.85 µM | > 100 µM | 1.81 µM | 3.48 µM | 3 µM | 8.44 µM | 2.86 µM | > 36.1 µM | 2.59 | > 40.1 |  | > 23.6
10 | Cc1noc(NC(=O)Nc2ccccc2F)c1C#N |  | > 100 |  | > 77.4 µM |  | > 48.9 µM |  | > 100 |  | 3.8 µM |  | > 100 µM |  | > 100 µM |  | > 35.6 µM |  | > 100 |  | > 100
11 | NC(N)=NCCCC(NCc1c2ccccc2nc2ccccc12)C(=O)O (stereo unspecified) |  | > 89.4 |  | > 100 µM |  | > 100 µM |  | > 100 |  | > 100 µM |  | > 100 µM |  | > 100 µM |  | > 100 µM |  | 44.1 |  | > 83.2
12 | S=C1SCN(Cc2ccccc2)CN1Cc1ccco1 | 3.62 | > 100 | 3.41 µM | 21.9 µM | 3.59 µM | 17.1 µM | 17.9 | > 100 | 16.6 µM | 34.1 µM | 4.4 µM | 14.3 µM | 1.52 µM | 10.6 µM | 1.78 µM | 16.1 µM | 5.91 | > 100 | 1.87 µM | > 100
13 | CC(=O)Oc1ccc(C2=Cc3ccc(OC(C)=O)cc3OC2C)cc1 (stereo unspecified) | 3.05 | > 100 | 12.7 µM | 60.5 µM | 3.44 µM | 30.6 µM | 3.57 | 73.1 | 11.1 µM | 72 µM | 27.9 µM | > 100 µM | 5.97 µM | 23.2 µM | 6.28 µM | 52.3 µM | 0.645 | 4.86 | 1.7 µM | 9.95
